Columns and labels:
Assay in all cases: relative viability (nuclei count vs DMSO), 5 days (fraction); higher = more cells survive
[1] = system: NCI-H1734
Procedure, shortened: (§1)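 Lung cancer cell lines in 1536-well plates got either a single drug or a fixed anchor-drug dose together with five library-drug doses (not always all listed) in √10 steps, by pin tool, on the day after seeding. Nuclei were counted after 5 days, and relative viability is the treated-to-vehicle ratio of nuclei counts. Values are medians of duplicate plates.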

[2] = system: EKVX
Procedure, shortened: as §1

[3] = system: NCI-H2228
Procedure, shortened: as §1

[4] = system: PC-14
Procedure, shortened: as §1

[5] = system: NCI-H1355
Procedure, shortened: as §1

[6] = system: COR-L 105
Procedure, shortened: as §1

[7] = system: NCI-H2009
Procedure, shortened: as §1

[8] = system: HCC-15
Procedure, shortened: as §1

[9] = system: HOP-62
Procedure, shortened: as §1

[10] = system: COR-L23
Procedure, shortened: as §1

[11] = system: NCI-H1755
Procedure, shortened: as §1

[12] = system: NCI-H1993
Procedure, shortened: as §1

[13] = system: UMC-11
Procedure, shortened: as §1

[14] = system: NCI-H838
Procedure, shortened: as §1

[15] = system: NCI-H647
Procedure, shortened: as §1

[16] = system: NCI-H2347
Procedure, shortened: as §1

[17] = system: HARA
Procedure, shortened: as §1

In the case of `Oc1nc(-c2ccc(C(F)(F)F)cc2)nc2c1CSCC2` [XAV939] + CC(C)C[C@H](NC(=O)[C@H](Cc1ccccc1)NC(=O)c1cnccn1)B(O)O [Bortezomib] (partner 0.002 µM), the relative viability ([1]; first compound 0.08 µM) was 1.04, the relative viability ([1]; first compound 0.253 µM) was 0.907 and the relative viability ([1]; first compound 0.8 µM) was 0.709. For the same compound, the relative viability ([1]; first compound 2.53 µM) was 0.86, the relative viability ([2]; first compound 0.08 µM) was 1.12 and the relative viability ([2]; first compound 0.253 µM) was 0.882. The relative viability ([2]; first compound 0.8 µM) was 0.773, the relative viability ([2]; first compound 2.53 µM) was 0.573 and the relative viability ([3]; first compound 0.08 µM) was 1.31. The relative viability ([3]; first compound 0.253 µM) was 0.711, the relative viability ([3]; first compound 0.8 µM) was 1.01 and the relative viability ([3]; first compound 2.53 µM) was 0.861. For the same compound, the relative viability ([4]; first compound 0.08 µM) was 0.825, the relative viability ([4]; first compound 0.253 µM) was 0.808 and the relative viability ([4]; first compound 0.8 µM) was 0.846. It also gave a relative viability ([4]; first compound 2.53 µM) of 0.794, a relative viability ([5]; first compound 0.08 µM) of 1.17 and a relative viability ([5]; first compound 0.253 µM) of 1.06. For the same compound, the relative viability ([5]; first compound 0.8 µM) was 1.21, the relative viability ([5]; first compound 2.53 µM) was 0.81 and the relative viability ([6]; first compound 0.08 µM) was 0.853. It also gave a relative viability ([6]; first compound 0.253 µM) of 0.755, a relative viability ([6]; first compound 0.8 µM) of 0.618 and a relative viability ([6]; first compound 2.53 µM) of 0.567. It also gave a relative viability ([7]; first compound 0.08 µM) of 1.17, a relative viability ([7]; first compound 0.253 µM) of 0.901 and a relative viability ([7]; first compound 0.8 µM) of 0.936. The relative viability ([7]; first compound 2.53 µM) was 0.915, the relative viability ([8]; first compound 0.08 µM) was 1.2 and the relative viability ([8]; first compound 0.253 µM) was 0.938. For the same compound, the relative viability ([8]; first compound 0.8 µM) was 1.05, the relative viability ([8]; first compound 2.53 µM) was 1.06 and the relative viability ([9]; first compound 0.08 µM) was 1.19. The relative viability ([9]; first compound 0.253 µM) was 0.73, the relative viability ([9]; first compound 0.8 µM) was 0.988 and the relative viability ([9]; first compound 2.53 µM) was 0.352. For the same compound, the relative viability ([10]; first compound 0.08 µM) was 1.03, the relative viability ([10]; first compound 0.253 µM) was 0.994 and the relative viability ([10]; first compound 0.8 µM) was 1.05. For the same compound, the relative viability ([10]; first compound 2.53 µM) was 0.855, the relative viability ([11]; first compound 0.08 µM) was 0.91 and the relative viability ([11]; first compound 0.253 µM) was 0.884. The relative viability ([11]; first compound 0.8 µM) was 0.86, the relative viability ([11]; first compound 2.53 µM) was 0.868 and the relative viability ([12]; first compound 0.8 µM) was 0.972. The relative viability ([12]; first compound 2.53 µM) was 0.891, the relative viability ([13]; first compound 0.08 µM) was 0.789 and the relative viability ([13]; first compound 0.8 µM) was 0.754. For the same compound, the relative viability ([13]; first compound 2.53 µM) was 0.708, the relative viability ([14]; first compound 0.08 µM) was 0.852 and the relative viability ([14]; first compound 0.253 µM) was 0.683. For the same compound, the relative viability ([14]; first compound 0.8 µM) was 0.893, the relative viability ([14]; first compound 2.53 µM) was 0.527 and the relative viability ([15]; first compound 0.08 µM) was 1.16. It also gave a relative viability ([15]; first compound 0.253 µM) of 0.747, a relative viability ([15]; first compound 0.8 µM) of 0.81 and a relative viability ([15]; first compound 2.53 µM) of 0.988. The relative viability ([16]; first compound 0.08 µM) was 1.27, the relative viability ([16]; first compound 0.253 µM) was 0.75 and the relative viability ([16]; first compound 0.8 µM) was 1.02. The relative viability ([16]; first compound 2.53 µM) was 0.837, the relative viability ([17]; first compound 0.08 µM) was 1.35 and the relative viability ([17]; first compound 0.253 µM) was 1. It also gave a relative viability ([17]; first compound 0.8 µM) of 1.12 and a relative viability ([17]; first compound 2.53 µM) of 1.
